Test results as given in ChEMBL document CHEMBL3860045 (Bioorg Med Chem Lett, 2016).

Assays:
[1] = target: T1, High affinity choline transporter 1 (Homo sapiens) (UniProt Q9GZV3); assay: Inhibition of [3H]choline uptake at human choline transporter expressed in HEK293 cells at 5 uM preincubated for 15 mins followed by [3H]choline addition measured after 10 to 15 mins by scintillation proximity assay relative to control; format: cell-based
T1 sequence (whole entry): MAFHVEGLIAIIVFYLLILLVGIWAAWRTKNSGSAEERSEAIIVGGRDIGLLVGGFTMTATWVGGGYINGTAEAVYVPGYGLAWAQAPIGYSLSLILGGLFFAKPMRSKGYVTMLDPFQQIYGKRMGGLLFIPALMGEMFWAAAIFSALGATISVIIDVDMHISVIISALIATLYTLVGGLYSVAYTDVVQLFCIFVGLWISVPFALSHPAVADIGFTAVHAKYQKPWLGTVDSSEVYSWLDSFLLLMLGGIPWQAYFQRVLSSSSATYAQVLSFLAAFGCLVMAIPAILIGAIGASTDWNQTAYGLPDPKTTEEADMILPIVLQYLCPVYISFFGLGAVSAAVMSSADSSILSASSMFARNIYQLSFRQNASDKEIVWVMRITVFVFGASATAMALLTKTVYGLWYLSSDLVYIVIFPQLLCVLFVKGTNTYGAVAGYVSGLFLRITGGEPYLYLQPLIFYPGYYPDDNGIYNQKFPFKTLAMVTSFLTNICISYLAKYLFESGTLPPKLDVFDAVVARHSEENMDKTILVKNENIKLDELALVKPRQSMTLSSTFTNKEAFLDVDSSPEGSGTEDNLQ

[2] = target: T2, High affinity choline transporter 1 (Homo sapiens, UniProt Q9GZV3); assay: Inhibition of [3H]choline uptake at human choline transporter expressed in HEK293 cells preincubated for 15 mins followed by [3H]choline addition measured after 10 to 15 mins by scintillation proximity assay; format: cell-based
T2 sequence (Q9GZV3 whole entry): T1 sequence (whole entry)

Cytochrome P450 3A4 = Cytochrome P450 3A4 (Homo sapiens, UniProt P08684); assay: Inhibition of human CYP3A4; format: ADME
[3] = Intrinsic clearance in human liver microsomes at 1 uM preincubated with microsomes followed by NADPH addition measured up to 45 mins by LC-MS/MS analysis; format: ADME; details: read-out: CLH
Cytochrome P450 2C9 = Cytochrome P450 2C9 (Homo sapiens, UniProt P11712); assay: Inhibition of human CYP2C9; format: ADME
[4] = Drug uptake in cannulated Sprague-Dawley rat brain at 1 mg/kg, iv administered twice at 24 hrs interval followed by 0.75 min of isoflurane treatment post 15 min second dose measured after […] by LC-MS/MS analysis; format: ADME, organism-based; details: read-out: Drug uptake
[5] = Fraction unbound in human plasma after 4 hrs by LC-MS/MS based equilibrium dialysis method; format: ADME, cell-free
[6] = Fraction unbound in rat brain after 4 hrs by LC-MS/MS based equilibrium dialysis method; format: ADME, tissue-based
Rattus norvegicus [7] = assay: Toxicity in rat at >10 mg/kg, ip; format: organism-based; details: in vivo
[8] = Intrinsic clearance in rat liver microsomes at 1 uM preincubated with microsomes followed by NADPH addition measured up to 45 mins by LC-MS/MS analysis; format: ADME; details: read-out: CLH
Rattus norvegicus [9] = assay: Cognitive enhancing effect in ip dosed rat assessed as increase in recognition index treated 30 mins prior test measured after 24 hrs by novel object recognition test relative to vehicle-treated control; format: functional, organism-based
[10] = Fraction unbound in rat plasma after 4 hrs by LC-MS/MS based equilibrium dialysis method; format: ADME, cell-free
[11] = Half life in cannulated Sprague-Dawley rat plasma at 1 mg/kg, iv by LC-MS/MS analysis; format: ADME, organism-based
[12] = Plasma concentration in cannulated Sprague-Dawley rat at 1 mg/kg, iv after […] by LC-MS/MS analysis; format: ADME, organism-based
Rattus norvegicus [13] = assay: Cognitive enhancing effect in rat assessed as increase in recognition index at 3 mg/kg, ip treated 30 mins prior test measured after 24 hrs by novel object recognition test relative to vehicle-treated control; format: functional
Cytochrome P450 2D6 = Cytochrome P450 2D6 (Homo sapiens, UniProt P10635); assay: Inhibition of human CYP2D6; format: ADME
[14] = Ratio of unbound concentration in cannulated Sprague-Dawley rat brain to plasma at 1 mg/kg, iv; format: ADME, organism-based; details: read-out: K(p,uu,brain)
[15] = Ratio of drug level in cannulated Sprague-Dawley rat brain to plasma at 1 mg/kg, iv; format: ADME, organism-based
[16] = Volume of distribution at steady state in cannulated Sprague-Dawley rat at 1 mg/kg, iv up to 24 hrs by LC-MS/MS analysis; format: ADME, organism-based; details: in vivo
[17] = Plasma clearance in cannulated Sprague-Dawley rat at 1 mg/kg, iv up to 24 hrs by LC-MS/MS analysis; format: ADME, organism-based
Rattus norvegicus [18] = assay: Cognitive enhancing effect in rat assessed as increase in recognition index at 10 mg/kg, ip treated 30 mins prior test measured after 24 hrs by novel object recognition test relative to vehicle-treated control; format: functional
Cytochrome P450 1A2 = target: T3, Cytochrome P450 1A2 (Homo sapiens, UniProt P05177); assay: Inhibition of human CYP1A2; format: ADME
T3 sequence (P05177 whole entry): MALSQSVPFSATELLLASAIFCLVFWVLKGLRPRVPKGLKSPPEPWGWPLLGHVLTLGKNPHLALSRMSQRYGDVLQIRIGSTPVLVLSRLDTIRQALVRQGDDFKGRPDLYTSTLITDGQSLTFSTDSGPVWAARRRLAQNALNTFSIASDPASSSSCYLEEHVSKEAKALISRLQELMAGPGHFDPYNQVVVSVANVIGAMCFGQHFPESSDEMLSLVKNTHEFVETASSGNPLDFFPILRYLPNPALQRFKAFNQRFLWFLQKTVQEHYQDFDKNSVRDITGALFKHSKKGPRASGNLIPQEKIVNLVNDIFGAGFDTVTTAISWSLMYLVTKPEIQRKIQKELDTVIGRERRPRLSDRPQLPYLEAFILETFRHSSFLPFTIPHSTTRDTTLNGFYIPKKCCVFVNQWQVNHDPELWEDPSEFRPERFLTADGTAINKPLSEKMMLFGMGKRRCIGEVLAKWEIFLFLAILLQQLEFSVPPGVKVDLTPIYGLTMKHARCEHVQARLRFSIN

Sequence of Cytochrome P450 2C9 (P11712 whole entry): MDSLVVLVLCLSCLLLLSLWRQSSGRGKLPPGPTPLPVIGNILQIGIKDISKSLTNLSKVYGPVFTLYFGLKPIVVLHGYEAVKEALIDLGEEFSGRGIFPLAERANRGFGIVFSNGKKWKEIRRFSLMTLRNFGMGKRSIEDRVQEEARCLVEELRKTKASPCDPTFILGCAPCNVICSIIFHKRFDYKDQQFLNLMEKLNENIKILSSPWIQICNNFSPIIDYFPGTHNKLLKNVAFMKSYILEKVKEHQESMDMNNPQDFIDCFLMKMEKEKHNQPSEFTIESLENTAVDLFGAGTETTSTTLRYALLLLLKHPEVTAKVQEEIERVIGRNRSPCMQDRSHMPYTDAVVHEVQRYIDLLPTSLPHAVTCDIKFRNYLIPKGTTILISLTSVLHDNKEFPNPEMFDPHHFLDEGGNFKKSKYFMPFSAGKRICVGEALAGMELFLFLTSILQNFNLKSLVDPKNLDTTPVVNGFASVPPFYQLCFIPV
Sequence of Cytochrome P450 3A4 (P08684 whole entry): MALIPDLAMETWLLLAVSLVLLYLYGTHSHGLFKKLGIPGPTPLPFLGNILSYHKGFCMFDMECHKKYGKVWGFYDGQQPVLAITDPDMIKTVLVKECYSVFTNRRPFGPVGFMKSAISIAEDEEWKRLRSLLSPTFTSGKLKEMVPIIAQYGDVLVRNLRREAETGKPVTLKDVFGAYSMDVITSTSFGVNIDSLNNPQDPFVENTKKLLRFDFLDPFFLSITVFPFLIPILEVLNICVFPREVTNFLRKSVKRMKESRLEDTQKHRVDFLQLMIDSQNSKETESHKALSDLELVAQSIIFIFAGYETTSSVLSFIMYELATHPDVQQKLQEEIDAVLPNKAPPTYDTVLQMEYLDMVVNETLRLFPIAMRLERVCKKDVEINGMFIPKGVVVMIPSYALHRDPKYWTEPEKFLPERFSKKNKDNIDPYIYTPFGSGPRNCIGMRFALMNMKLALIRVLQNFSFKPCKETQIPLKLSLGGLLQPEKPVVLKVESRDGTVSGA
Sequence of Cytochrome P450 2D6 (P10635 whole entry): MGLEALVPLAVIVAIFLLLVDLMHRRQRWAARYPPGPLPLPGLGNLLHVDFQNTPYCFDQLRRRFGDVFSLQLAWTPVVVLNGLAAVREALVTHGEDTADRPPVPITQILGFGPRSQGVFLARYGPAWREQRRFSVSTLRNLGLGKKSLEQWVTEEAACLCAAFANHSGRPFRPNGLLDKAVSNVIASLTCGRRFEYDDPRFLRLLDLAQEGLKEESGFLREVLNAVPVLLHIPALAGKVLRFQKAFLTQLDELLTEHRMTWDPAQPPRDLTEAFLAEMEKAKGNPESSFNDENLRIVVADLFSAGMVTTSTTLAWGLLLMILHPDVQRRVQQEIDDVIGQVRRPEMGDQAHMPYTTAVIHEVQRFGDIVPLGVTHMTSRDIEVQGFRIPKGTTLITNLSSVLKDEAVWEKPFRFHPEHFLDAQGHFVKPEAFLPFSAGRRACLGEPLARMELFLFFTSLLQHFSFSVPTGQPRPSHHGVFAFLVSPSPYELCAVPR

SMILES: CC(C)c1cc(CNC(=O)c2ccc(F)c(OC3CCN(C)CC3)c2)on1
- inhibition [1]: > 50%
- IC50 [2]: 467 nM

SMILES: CC(C)c1cc(CNC(=O)c2ccc(Cl)c(OC3CCN(C)CC3)c2)on1
- IC50 (Cytochrome P450 3A4): > 30000 nM
- CLint scaled at 1 µM [3]: 10.4 mL/min/kg
- IC50 (Cytochrome P450 2C9): > 30000 nM
- concentration at […] [4]: 16.3 ng/g
- fraction unbound at 4 h [5]: 0.31
- inhibition [1]: > 50%
- fraction unbound at 4 h [6]: 0.65
- Activity (Rattus norvegicus [7]): Toxic
- CLint scaled at 1 µM [8]: 42.5 mL/min/kg
- Activity (Rattus norvegicus [9]): Dose-dependent effect
- fraction unbound at 4 h [10]: 0.19
- half-life ([11]; Sprague-Dawley, plasma): 1.95 h
- concentration at […] [12]: 47.2 ng/mL
- Activity (Rattus norvegicus [13]): 28%
- IC50 [2]: 270 nM
- IC50 (Cytochrome P450 2D6): > 30000 nM
- Kp uu [14]: 0.71
- Kp [15]: 0.34
- Vd ([16]; Sprague-Dawley, read-out: Vdss): 0.3 L/kg
- clearance [17]: 1.54 mL/min/kg
- Activity (Rattus norvegicus [18]): 24%
- IC50 (Cytochrome P450 1A2): > 30000 nM

SMILES: COc1cc2c(cc1OC)C(=O)C(CC1CCN(Cc3ccccc3)CC1)C2 (stereo not drawn)
- Activity (Rattus norvegicus [9]): Dose-dependent effect

SMILES: CC(C)c1cc(CNC(=O)c2ccc(C#N)c(OC3CCN(C)CC3)c2)on1
- inhibition [1]: > 50%
- IC50 [2]: 3350 nM

SMILES: CC(C)c1cc(CNC(=O)c2ccc(C(F)(F)F)c(OC3CCN(C)CC3)c2)on1
- inhibition [1]: > 50%
- IC50 [2]: > 10000 nM

SMILES: COc1ccc(C(=O)NCc2cc(C(C)C)no2)cc1OC1CCN(C)CC1
- CLint scaled at 1 µM [3]: 10.4 mL/min/kg
- concentration at […] [4]: 23.4 ng/g
- Fu ([5]; 4 h): 0.67
- fraction unbound at 4 h [6]: 0.36
- CLint scaled at 1 µM [8]: 95 mL/min/kg
- Fu ([10]; 4 h): 0.35
- t1/2 ([11]; in vivo): 0.55 h
- concentration at […] [12]: 129 ng/mL
- Kp [15]: 0.18
- Vdss ([16]; 24 h): 3.2 L/kg

SMILES: CC(C)c1cc(CNC(=O)c2cccc(OC3CCN(C(C)C)CC3)c2)on1
- inhibition [1]: > 50%
- IC50 [2]: 1840 nM

SMILES: CC(C)c1cc(CNC(=O)c2cccc(OC3CCN(C)CC3)c2)on1
- inhibition [1]: > 50%
- IC50 [2]: 640 nM
